# Assay results: US6004952A, “Micacocidin derivatives” (Shinogi & Co., Ltd., priority 1996, dated 1999)
# Where two headings read alike, the source gives them in different places.
# Key:
# Eimeria tenella = test: Growth inhibition activities to avian coccidium in primary chicken kidney cells; assay type: cell-based; details: Eimeria tenella; more than 80% of suppression rate regarded as effective; read-out: Effective dose (growth inhibition)
# Method: The kidneys of SPF new born chicken was sterilely removed, which was treated with trypsin and the resultant primary kidney cells were cultured in 24-well plate. Monolayer culture after cultured for 3 days was treated simultaneously with compounds adjusted to predetermined concentration and sporozoit obtained by artificial excystation, which was cultured a 40° C. Premature and mature schizonts were observed under microscope, and the growth inhibition activities (suppression rate) for each treatment group were calculated at a proportion of the number of schizonts for the sporozoit-inoculated, compound-untreated control group (100%).
# [1] = Cytotoxicity to primary chicken kidney culture cells; assay type: cell-based; details: primary chicken kidney cells
# mice spleen cells [2] = test: Suppression of reaction of mice spleen cells to Concanavalin A, in vitro (MTT); assay type: cell-based, BDF1 mice; details: for inhibition at 0.156 µg/mL: 156 ng/ml; for inhibition at 0.312 µg/mL: 312 ng/ml; for inhibition at 0.625 µg/mL: 625 ng/ml
# Method: (§1) To each well of 96 well microtiter plate were added 5×10^5 spleen cells of BDF1 mice suspended in 0.1 ml of RPMI 1640 medium supplemented with 10% bovine fetus serum (supplemented with 2 mM sodium hydrogen carbonate, 50 Units/ml of penicillin, 50 μg/ml of streptomycin, and 5×10^-5 M of 2-mercaptoethanol), and then, 5 μg/ml of Concanavalin A (Con A) or 10 μg/ml of lypopolysaccaride (LPS) and various concentrations of test substance, of which final volume was adjusted to 0.2 ml. Test substances were dissolved in dimethylsulfoxide (DMSO), diluted with RPMI 1640 stated above, and added to the wells so that final concentration of the substances becomes less than 10000 ng/ml. The 96-well microtiter plates were cultured at 37° C. for 3 days in an incubator which was maintained at the humidity of 100%, 5% of carbon dioxide and 95% of air. After cultivation is completed, […] of 6 mg/ml solution of MTT {3-(4,5-dimethylthiazol-2yl)-2,5 diphenyltetrazoliumbromide} (Sigma) is added to each well, which is cultured at 37° C. for […] under the same conditions. After cultivation is completed, formazan formed is dissolved by adding 50 μl of a solution of 20% dodecyl sodium sulfonate (SDS) in 0.02N hydrochloric acid and kept standing at 37° C. for 24 hours. The absorbance (OD) of the formazan which was produced in proportion to the number of alive cells, was determined by using immunoreader equipped with 570 nm filter (see The Journal of Immunological Methods, Vol.65, 55-63, 1983).
# (§2) Cell growth inhibition rate and IC50 value were calculated according to the correlation between the concentration and the absorbance for each substance.
# mice spleen cells [3] = test: Suppression of reaction of mice spleen cells to lypopolysaccaride (LPS), in vitro (MTT); assay type: cell-based, BDF1 mice; details: for inhibition at 0.156 µg/mL: 156 ng/ml; for inhibition at 0.312 µg/mL: 312 ng/ml; for inhibition at 0.625 µg/mL: 625 ng/ml
# Method: as §1, §2
# M. gallisepticum [4] = test: MIC, liquid dilution method, Mycoplasma gallisepticum; details: Mycoplasmoides gallisepticum
# M. hyopneumoniae = test: MIC, liquid dilution method, Mycoplasma hyopneumoniae; details: Mesomycoplasma hyopneumoniae
# M. pneumoniae = test: MIC, liquid dilution method, Mycoplasma pneumoniae; details: Mycoplasmoides pneumoniae
# Serpulina hyodysenteriae = test: MIC, agar dilution method, anaerobic, Serpulina hyodysenteriae; assay type: cell-based, S. hyodysenteriae ATCC 27164
# Clostridium perfringens = test: microbe, parasite or virus in culture; assay type: cell-based, C. perfringens ATCC 13124
# Mycoplasma = test: MIC to Mycoplasmas (summary in words); assay type: cell-based
# Candida albicans = test: Antifungal activity, micro-liquid dilution method, Candida albicans; assay type: cell-based, Candida albicans strain Ca-15; details: Candida albicans, 24 h, 30° C., read-out: Antifungal activities: IC50
# Method: (§3) Antifungal activities of the compounds to Candida albicans (strain Ca-15) and Asperilhm fumigatus (strain MA), representative pathogenic fungi, were determined by micro-liquid dilution method using 96-well microplates. A fungal suspension stored under freezing was adjusted to 1×1 O^5 CFU/ml by medium, of which 100 μl portions were charged into each well. The compound of the present invention was dissolved in dimethylsulfoxide (DMSO). Using the resultant solution, 2-fold dilution series were prepared together with the fungal suspension charged into the wells. YNB medium and RPMI medium were used. After cultured for 24 hours at 30° C., evaluation was performed by detecting the turbidity (wave length: 595 nm) using microplate reader.
# Aspergillus fumigatus = test: Antifungal activity, micro-liquid dilution method, Aspergillus fumigatus; assay type: cell-based, Aspergillus fumigatus strain MA; details: Aspergillus fumigatus, 24 h, 30° C., read-out: Antifungal activities: IC50
# Method: as §3
# M. gallisepticum [5] = test: In vivo evaluation test for M. gallisepticum in chickens (air-sac lesions); details: 6 chickens tested
# [6] = Mus musculus, 72 h, Con A, read-out: Suppression rate
# [7] = Mus musculus, 72 h, LPS, read-out: Suppression rate
compound,measurement,setting,value
CCCCCc1cccc(OCc2ccc(Cl)cc2)c1C1=NC(C2SCC(C(OCc3ccc(Cl)cc3)C(C)(C)C3=NC(C)(C(=O)OCc4ccc(Cl)cc4)CS3)N2C)CS1 (stereo not drawn) [Compound 21],minimal effective concentration,Eimeria tenella,> 10 µg/mL
same,MCC,[1],> 10 µg/mL
CCCCCc1cccc(O)c1C1=NC(C2SCC(C(OCc3ccc(Cl)cc3)C(C)(C)C3=NC(C)(C(=O)O)CS3)N2C)CS1 (stereo not drawn) [Compound 6],suppression of the reaction to Con A of spleen cells,mice spleen cells [2],suppressed
same,inhibition at 0.156 µg/mL,mice spleen cells [2]; [6],0%
same,inhibition at 0.312 µg/mL,mice spleen cells [2]; [6],16.5%
same,inhibition at 0.625 µg/mL,mice spleen cells [2]; [6],87.4%
same,inhibition at 1.25 µg/mL,"mice spleen cells [2]; Mus musculus, 72 h, Con A, 1250 ng/ml, read-out: Suppression rate",98.6%
same,inhibition at 2.5 µg/mL,"mice spleen cells [2]; Mus musculus, 72 h, Con A, 2500 ng/ml, read-out: Suppression rate",102%
same,IC50,"mice spleen cells [2]; Mus musculus, Con A",0.399 µg/mL
same,suppression of the reaction to LPS of spleen cells,mice spleen cells [3],suppressed
same,inhibition at 0.156 µg/mL,mice spleen cells [3]; [7],17.7%
same,inhibition at 0.312 µg/mL,mice spleen cells [3]; [7],24.4%
same,inhibition at 0.625 µg/mL,mice spleen cells [3]; [7],84.3%
same,inhibition at 1.25 µg/mL,"mice spleen cells [3]; Mus musculus, 72 h, LPS, 1250 ng/ml, read-out: Suppression rate",98%
same,inhibition at 2.5 µg/mL,"mice spleen cells [3]; Mus musculus, 72 h, LPS, 2500 ng/ml, read-out: Suppression rate",105%
same,IC50,"mice spleen cells [3]; Mus musculus, LPS",0.368 µg/mL
CCCCCc1cccc(OCOC)c1C1=NC(C2SCC(C(O)C(C)(C)C3=NC(C)(C(=O)OCOC)CS3)N2C)CS1 (stereo not drawn) [Compound 18],MIC,M. gallisepticum [4],1.56 µg/mL
same,MIC,M. hyopneumoniae,0.05 µg/mL
same,MIC,M. pneumoniae,0.025 µg/mL
same,suppression of the reaction to Con A of spleen cells,mice spleen cells [2],suppressed
same,inhibition at 0.039 µg/mL,"mice spleen cells [2]; Mus musculus, 72 h, Con A, 39 ng/ml, read-out: Suppression rate",14.7%
same,inhibition at 0.078 µg/mL,"mice spleen cells [2]; Mus musculus, 72 h, Con A, 78 ng/ml, read-out: Suppression rate",25.7%
same,inhibition at 0.156 µg/mL,mice spleen cells [2]; [6],75.5%
same,inhibition at 0.312 µg/mL,mice spleen cells [2]; [6],94.9%
same,inhibition at 0.625 µg/mL,mice spleen cells [2]; [6],98.6%
same,IC50,"mice spleen cells [2]; Mus musculus, Con A",0.101 µg/mL
same,activity to Serpulina (Treponema) hyodysenteriae,Serpulina hyodysenteriae,showed the activity
same,activity to Clostridium perflingens,Clostridium perfringens,showed the activity
same,minimal effective concentration,Eimeria tenella,10 µg/mL
same,MCC,[1],> 10 µg/mL
same,suppression of the reaction to LPS of spleen cells,mice spleen cells [3],suppressed
same,inhibition at 0.039 µg/mL,"mice spleen cells [3]; Mus musculus, 72 h, LPS, 39 ng/ml, read-out: Suppression rate",27.4%
same,inhibition at 0.078 µg/mL,"mice spleen cells [3]; Mus musculus, 72 h, LPS, 78 ng/ml, read-out: Suppression rate",41.5%
same,inhibition at 0.156 µg/mL,mice spleen cells [3]; [7],74.6%
same,inhibition at 0.312 µg/mL,mice spleen cells [3]; [7],93.4%
same,inhibition at 0.625 µg/mL,mice spleen cells [3]; [7],101%
same,IC50,"mice spleen cells [3]; Mus musculus, LPS",0.084 µg/mL
same,MICs to Mycoplasmas,Mycoplasma,low MICs
CCCCCc1cccc(O)c1C1=NC(C2SCC(C(O)C(C)(C)C3=NC(C)(CO)CS3)N2C)CS1 (stereo not drawn) [Compound 32],MIC,M. gallisepticum [4],0.39 µg/mL
same,MIC,M. hyopneumoniae,0.05 µg/mL
same,MIC,M. pneumoniae,0.025 µg/mL
same,minimal effective concentration,Eimeria tenella,10 µg/mL
same,MCC,[1],> 10 µg/mL
CCCCCc1cccc(OCc2ccc(Cl)cc2)c1C1=NC(C2SCC(C(O)C(C)(C)C3=NC(C)(C(=O)OC)CS3)N2C)CS1 (stereo not drawn) [Compound 11],minimal effective concentration,Eimeria tenella,10 µg/mL
same,MCC,[1],> 10 µg/mL
CCCCCc1cccc(O)c1C1=NC(C2SCC(C(O)C(C)(C)C3=NC(C)(C(=O)NC(C)C(=O)OC)CS3)N2C)CS1 (stereo not drawn) [Compound 28],MIC,M. gallisepticum [4],0.39 µg/mL
same,MIC,M. hyopneumoniae,0.1 µg/mL
same,MIC,M. pneumoniae,0.05 µg/mL
same,minimal effective concentration,Eimeria tenella,10 µg/mL
same,MCC,[1],> 10 µg/mL
same,MICs to Mycoplasmas,Mycoplasma,low MICs
CCCCCc1cccc(O)c1C1=NC(C2SCC(C(OCc3ccc(Cl)cc3)C(C)(C)C3=NC(C)(C(=O)OC)CS3)N2C)CS1 (stereo not drawn) [Compound 13],minimal effective concentration,Eimeria tenella,> 10 µg/mL
same,MCC,[1],> 10 µg/mL
CCCCCc1cccc(O)c1C1=NC(C2SCC(C(O)C(C)(C)C3=NC(C)(C(=O)OCc4ccc(Cl)cc4)CS3)N2C)CS1 (stereo not drawn) [Compound 22],MIC,M. gallisepticum [4],> 3.13 µg/mL
same,MIC,M. hyopneumoniae,0.1 µg/mL
same,MIC,M. pneumoniae,0.39 µg/mL
same,minimal effective concentration,Eimeria tenella,2.5 µg/mL
same,MCC,[1],> 10 µg/mL
CCCCCc1cccc(O)c1C1=NC(C2SCC(C(O)C(C)(C)C3=NC(C)(C(=O)N(C)O)CS3)N2C)CS1 (stereo not drawn) [Compound 25],IC50,Candida albicans; RPMI medium,6.3 µg/mL
same,IC50,Candida albicans; YNB medium,50 µg/mL
same,IC50,Aspergillus fumigatus; RPMI medium,0.2 µg/mL
same,IC50,Aspergillus fumigatus; YNB medium,50 µg/mL
CCCCCc1cccc(O)c1C1=NC(C2SCC(C(OC(C)=O)C(C)(C)C3=NC(C)(C(=O)O)CS3)N2C)CS1 (stereo not drawn) [Compound 3],minimal effective concentration,Eimeria tenella,10 µg/mL
same,MCC,[1],> 10 µg/mL
CCCCCc1cccc(O)c1C1=NC(C2SCC(C(O)C(C)(C)C3=NC(C)(C(=O)OC)CS3)N2C)CS1 (stereo not drawn) [Compound 12],MIC,M. gallisepticum [4],0.2 µg/mL
same,MIC,M. hyopneumoniae,≤ 0.025 µg/mL
same,MIC,M. pneumoniae,≤ 0.00625 µg/mL
same,minimal effective concentration,Eimeria tenella,0.625 µg/mL
same,MCC,[1],> 10 µg/mL
same,MICs to Mycoplasmas,Mycoplasma,low MICs
CCCCCc1cccc(O)c1C1=NC(C2SCC(C(O)C(C)(C)C3=NC(C)(C(N)=O)CS3)N2C)CS1 (stereo not drawn) [Compound 31],MIC,M. gallisepticum [4],0.39 µg/mL
same,MIC,M. hyopneumoniae,0.2 µg/mL
same,MIC,M. pneumoniae,0.2 µg/mL
same,MCC,[1],10 µg/mL
"CN(C)[C@@H]1C(O)=C(C(N)=O)C(=O)[C@@]2(O)C(O)=C3C(=O)c4c(O)ccc(Cl)c4[C@@](C)(O)[C@H]3C[C@@H]12 [CTC, chlortetracycline, reference compound]",air-sac lesions (the number of chickens): (+) slight,"M. gallisepticum [5]; 50 mg/kg × 1, orally",0
same,air-sac lesions (the number of chickens): (++-+++) moderate to severe,"M. gallisepticum [5]; 50 mg/kg × 1, orally",3
same,air-sac lesions (the number of chickens): (-) non,"M. gallisepticum [5]; 50 mg/kg × 1, orally",3
same,number of chickens having lesions,"M. gallisepticum [5]; 50 mg/kg × 1, orally",3
same,air-sac lesions (the number of chickens): (+) slight,"M. gallisepticum [5]; 100 mg/kg × 1, orally",0
same,air-sac lesions (the number of chickens): (++-+++) moderate to severe,"M. gallisepticum [5]; 100 mg/kg × 1, orally",1
same,air-sac lesions (the number of chickens): (-) non,"M. gallisepticum [5]; 100 mg/kg × 1, orally",5
same,number of chickens having lesions,"M. gallisepticum [5]; 100 mg/kg × 1, orally",1
same,air-sac lesions (the number of chickens): (+) slight,"M. gallisepticum [5]; 200 mg × 1, orally",0
same,air-sac lesions (the number of chickens): (++-+++) moderate to severe,"M. gallisepticum [5]; 200 mg × 1, orally",1
same,air-sac lesions (the number of chickens): (-) non,"M. gallisepticum [5]; 200 mg × 1, orally",5
same,number of chickens having lesions,"M. gallisepticum [5]; 200 mg × 1, orally",1
CCCCCc1cccc(O)c1C1=NC(C2SCC(C(O)C(C)(C)C3=NC(C)(C(=O)NCCO)CS3)N2C)CS1 (stereo not drawn) [Compound 30],MIC,M. gallisepticum [4],0.78 µg/mL
same,MIC,M. hyopneumoniae,0.39 µg/mL
same,MIC,M. pneumoniae,0.2 µg/mL
same,minimal effective concentration,Eimeria tenella,2.5 µg/mL
same,MCC,[1],> 10 µg/mL
CCCCCc1cccc(OC(C)=O)c1C1=NC(C2SCC(C(OC(C)=O)C(C)(C)C3=NC(C)(C(=O)OC)CS3)N2C)CS1 (stereo not drawn) [Compound 10],minimal effective concentration,Eimeria tenella,> 10 µg/mL
same,MCC,[1],> 10 µg/mL
CCCCCc1cccc(O)c1C1=NC(C2SCC(C(O)C(C)(C)C3=NC(C)(C(=O)O)CS3)N2C)CS1 (stereo not drawn) [Compound 2],IC50,Candida albicans; RPMI medium,1.6 µg/mL
same,IC50,Candida albicans; YNB medium,6.3 µg/mL
same,IC50,Aspergillus fumigatus; RPMI medium,0.2 µg/mL
same,IC50,Aspergillus fumigatus; YNB medium,3.2 µg/mL
same,minimal effective concentration,Eimeria tenella,2.5 µg/mL
same,MCC,[1],10 µg/mL
